Test systems include RXF 393; M14; SF-539; T47D; SN12C; HT-29; A549; SNB-75; OVCAR-3; UO-31; OVCAR-8; KM12; HL-60; NCI-H226; HOP-92; SF-295; SW-620; NCI-H23; TK-10; SR.
What all share (test): growth of human tumour cells (NCI), 48 h

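Method: 48-hour compound exposure of cells in 96-well plates, five concentrations, linear interpolation of endpoints. GI50 marks 50% less growth.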 Activity calls are given as the source filed them. Rule as the data show it: active = GI50 up to about 1.1 µM and inactive = higher.

Consider `CCOC(=O)CCc1c(C(=O)OCC)[nH]c(/C=C2\NC(=O)C(C)=C2CC)c1C`, for which the GI50 is 23.2 µM (inactive) in the assay on RXF 393; 24.8 µM (inactive) with M14; 27.9 µM (inactive) with SF-539; 10.1 µM (inactive) with T47D; 32.6 µM (inactive) in the assay with SN12C; 50.7 µM (inactive) with HT-29. Further, the GI50 with A549 is 40.1 µM (inactive); with SNB-75, 13.5 µM (inactive); in the assay on OVCAR-3 it was 18.5 µM (inactive); in the assay on UO-31, 44 µM (inactive); with OVCAR-8, 5.83 µM (inactive); with KM12, > 100 µM (inactive). The GI50 is > 100 µM (inactive) in the assay on HL-60, 36.5 µM (inactive) in the assay with NCI-H226, 16.1 µM (inactive) in the assay with HOP-92 and 17.8 µM (inactive) in the assay on SF-295.

Turning to `O=C1C=CC(=O)c2c1ccc1c3ccccc3n(-c3ccccc3[N+](=O)[O-])c21`, the GI50 in the assay with SW-620 was 1.98 µM (inactive); in the assay on RXF 393 it was 1.62 µM (inactive); in the assay with M14, 2.03 µM (inactive); in the assay on NCI-H23, 4.55 µM (inactive); in the assay on SF-539, 22.5 µM (inactive); with T47D it was 1.33 µM (inactive). In addition, the GI50 in the assay on SN12C was 4.01 µM (inactive); in the assay with HT-29, 5.2 µM (inactive); in the assay with A549, 21.7 µM (inactive); with SNB-75, 13.9 µM (inactive); with OVCAR-3, 2.44 µM (inactive); in the assay on UO-31 it was 1.44 µM (inactive). For the same compound, the GI50 in the assay with TK-10 was 2.44 µM (inactive); with OVCAR-8, 2.03 µM (inactive); in the assay with KM12, 8.97 µM (inactive); with HL-60, 1.06 µM (active); in the assay on NCI-H226, 20.2 µM (inactive); with SF-295, 22.6 µM (inactive). Moreover, in the assay with SR, the GI50 was 0.444 µM (active).

For the compound `C=C(C)[C@H]1[C@@H]2OC(=O)[C@H]1[C@]1(O)C[C@H]3OC34C(=O)O[C@H]2[C@@]41C.CC(C)(O)[C@H]1[C@@H]2OC(=O)[C@H]1[C@]1(O)C[C@H]3OC34C(=O)O[C@H]2[C@@]41C` (stereo not given in full), the GI50 in the assay with SW-620, with RXF 393, in the assay with M14, in the assay with NCI-H23, in the assay on SF-539 and in the assay with T47D was > 100 µM (inactive) throughout. Also, the GI50 with SN12C, in the assay with HT-29, in the assay with A549, in the assay on SNB-75, in the assay with OVCAR-3 and in the assay on UO-31 was > 100 µM (inactive) in each case. Besides, the GI50 with TK-10, with OVCAR-8, with KM12, with HL-60, with NCI-H226 and with HOP-92 was > 100 µM (inactive) throughout. Also, the GI50 in the assay with SF-295 was > 100 µM (inactive).

For `CN(C)C(=N)/N=C(\N)Nc1cccc(Cl)c1`, the GI50 is > 100 µM (inactive) in the assay on SW-620; 58.2 µM (inactive) in the assay with M14; > 100 µM (inactive) in the assay with NCI-H23; 47.8 µM (inactive) with SF-539; 24.8 µM (inactive) with T47D; 98.6 µM (inactive) in the assay on SN12C. For the same compound, the GI50 with HT-29 is > 100 µM (inactive); in the assay on A549, > 100 µM (inactive); in the assay on SNB-75, 91.2 µM (inactive); with OVCAR-3, > 100 µM (inactive); with UO-31, 78 µM (inactive); in the assay on TK-10 it was > 100 µM (inactive). Besides, the GI50 is 61.4 µM (inactive) in the assay on OVCAR-8; > 100 µM (inactive) with KM12; 22.3 µM (inactive) in the assay on NCI-H226; 84.1 µM (inactive) with SF-295; 53.2 µM (inactive) in the assay with SR.

As for `Sc1nnc(NNc2ccccc2)n1Nc1ccccc1`, the GI50 in the assay with SW-620 is 28.7 µM (inactive); in the assay on RXF 393, 1.78 µM (inactive); in the assay with M14 it was 2.02 µM (inactive); in the assay with NCI-H23, 28.2 µM (inactive); with SF-539 it was > 42.5 µM (inactive); in the assay on T47D, 0.528 µM (active). Besides, the GI50 was > 95.9 µM (inactive) with SN12C; 4.76 µM (inactive) with HT-29; 8.97 µM (inactive) in the assay with A549; > 44.7 µM (inactive) in the assay on SNB-75; > 41.7 µM (inactive) in the assay on OVCAR-3; > 52.6 µM (inactive) in the assay with TK-10. Besides, the GI50 in the assay with OVCAR-8 was 21.2 µM (inactive); with KM12 it was 26.1 µM (inactive); in the assay with HL-60, 0.04 µM (active); in the assay on NCI-H226, 22.6 µM (inactive); with HOP-92, 25.3 µM (inactive); in the assay with SF-295, < 0.01 µM (active).

Turning to `N#CC(c1ccccc1)N(CCc1ccccc1)C(=O)c1ccc(C(=O)N(CCc2ccccc2)C(C#N)c2ccccc2)cc1` (stereo not given), the GI50 was 22.9 µM (inactive) in the assay on SW-620; 21.3 µM (inactive) with RXF 393; 24.4 µM (inactive) with M14; 25.5 µM (inactive) in the assay with NCI-H23; 19.5 µM (inactive) in the assay on SF-539; 16.9 µM (inactive) in the assay on T47D. In addition, the GI50 is 19.5 µM (inactive) with SN12C; 19 µM (inactive) in the assay with HT-29; 26.7 µM (inactive) in the assay on A549; 19.3 µM (inactive) in the assay on SNB-75; 17.1 µM (inactive) with OVCAR-3; 19.4 µM (inactive) in the assay with UO-31. For the same compound, the GI50 in the assay with TK-10 is 13.9 µM (inactive); in the assay with OVCAR-8, 17.6 µM (inactive); with KM12, 32.9 µM (inactive); with HL-60, 22.9 µM (inactive); with NCI-H226, 17 µM (inactive); with HOP-92 it was 12.9 µM (inactive). Besides, the GI50 in the assay with SF-295 is 18.5 µM (inactive).

`c1ccc(CC2(c3cc4ccccc4[nH]3)OCCO2)nc1`: the GI50 is > 100 µM (inactive) with SW-620; 88.1 µM (inactive) in the assay on RXF 393; > 100 µM (inactive) in the assay with M14; > 100 µM (inactive) in the assay with NCI-H23; > 100 µM (inactive) in the assay with SF-539; > 100 µM (inactive) with T47D. Also, the GI50 in the assay on SN12C is > 100 µM (inactive); in the assay with HT-29, > 100 µM (inactive); in the assay on A549, > 100 µM (inactive); in the assay with SNB-75 it was 12.1 µM (inactive); in the assay on OVCAR-3, 90.6 µM (inactive); with UO-31 it was > 100 µM (inactive). For the same compound, the GI50 in the assay on TK-10 was > 100 µM (inactive); in the assay with OVCAR-8, > 100 µM (inactive); in the assay on KM12, > 100 µM (inactive); in the assay on HL-60, 72.3 µM (inactive); in the assay on NCI-H226, 18 µM (inactive); in the assay with HOP-92 it was > 100 µM (inactive). For the same compound, in the assay with SF-295, the GI50 was 58.1 µM (inactive).

Regarding `COc1cc(C2SCC(=O)N2c2ccc(-c3ccc(-n4c(-c5ccccc5)nc5ccccc5c4=O)cc3)cc2)cc(OC)c1OC` (stereo not given), the GI50 in the assay on SW-620 was 17.3 µM (inactive); with M14 it was 20.5 µM (inactive); in the assay on NCI-H23 it was 73.1 µM (inactive); with SF-539 it was 30.3 µM (inactive); in the assay on T47D it was 24.8 µM (inactive); in the assay on SN12C, 81.5 µM (inactive). The GI50 in the assay with HT-29 was 33.3 µM (inactive); in the assay on A549, 24.6 µM (inactive); in the assay on OVCAR-3 it was 18.5 µM (inactive); in the assay on UO-31, 25.2 µM (inactive); in the assay with TK-10 it was 63.1 µM (inactive); with OVCAR-8 it was 43.4 µM (inactive). Besides, the GI50 in the assay with KM12 is 12.6 µM (inactive); in the assay on HL-60, 22.3 µM (inactive); with NCI-H226 it was > 100 µM (inactive); in the assay with HOP-92 it was 50.7 µM (inactive); with SR, 23.1 µM (inactive).

Take `CCN(CC)CCN(/C(=N/c1ccccc1)N1CCOCC1)c1ccccc1`: the GI50 in the assay on SW-620 is > 100 µM (inactive); in the assay on RXF 393, > 100 µM (inactive); in the assay on M14, > 100 µM (inactive); with NCI-H23, 70 µM (inactive); in the assay on SF-539, > 100 µM (inactive); in the assay on T47D, > 100 µM (inactive). Moreover, the GI50 in the assay with SN12C is > 100 µM (inactive); with HT-29, 42.1 µM (inactive); in the assay on A549, > 100 µM (inactive); in the assay with SNB-75, > 100 µM (inactive); in the assay on OVCAR-3 it was > 100 µM (inactive); in the assay with UO-31 it was > 100 µM (inactive). Also, the GI50 is > 100 µM (inactive) in the assay on TK-10; > 100 µM (inactive) in the assay with OVCAR-8; > 100 µM (inactive) in the assay with KM12; 18.2 µM (inactive) in the assay with HL-60; > 100 µM (inactive) in the assay with NCI-H226; > 100 µM (inactive) with SF-295. Further, in the assay with SR, the GI50 is 50.6 µM (inactive).

On to `CN1c2ccccc2S(=O)(=O)n2c(CCc3ccccc3)nnc21`, for which the GI50 with SW-620, with RXF 393, in the assay with M14, in the assay with NCI-H23, in the assay on SF-539 and with T47D was > 100 µM (inactive) each time. Moreover, the GI50 in the assay with SN12C, with HT-29, in the assay with A549, in the assay with OVCAR-3, in the assay with UO-31 and in the assay with TK-10 was > 100 µM (inactive) in each case. Also, the GI50 is > 100 µM (inactive) with OVCAR-8; > 100 µM (inactive) in the assay with KM12; > 100 µM (inactive) in the assay with HL-60; > 100 µM (inactive) with NCI-H226; 37.8 µM (inactive) in the assay with HOP-92; 56.2 µM (inactive) in the assay with SF-295.

Turning to `CN(C)/C=N\c1nncc2[nH]nnc12`, the GI50 in the assay with SW-620, in the assay with RXF 393, in the assay with M14, in the assay with NCI-H23, with SF-539 and in the assay on T47D was > 100 µM (inactive) throughout. Moreover, the GI50 in the assay on SN12C, in the assay with HT-29, in the assay on A549, in the assay with SNB-75, with OVCAR-3 and in the assay with UO-31 was > 100 µM (inactive) each time. Besides, the GI50 in the assay with TK-10 was > 100 µM (inactive); in the assay on OVCAR-8, > 100 µM (inactive); in the assay on KM12, > 100 µM (inactive); in the assay on HL-60, 5.97 µM (inactive); in the assay on NCI-H226 it was > 100 µM (inactive); with SF-295, > 100 µM (inactive). Further, the GI50 in the assay with SR is > 100 µM (inactive).

The values above are taken from ChEMBL document CHEMBL1201862, “PubChem BioAssay data set” (2004).
